Laboratory results published in ChEMBL document CHEMBL3351624, “A semi-synthetic derivative of artemisinin, artesunate inhibits prostaglandin E2 production in LPS/IFNγ-activated BV2 microglia” (Bioorg Med Chem, 2014).
Activity calls are given as the source filed them. The calls are words filed in the database; no cut-off is given here.

What was measured:
[1] = tested on: BV-2; test: Antiinflammatory activity in mouse BV2 cells assessed as inhibition of LPS/IFNgamma-induced PGE2 production at 2 uM after 24 hrs by enzyme immunoassay; assay type: functional, cell-based
[2] = Antiinflammatory activity in mouse BV2 cells assessed as LPS/IFNgamma-induced PGE2 production at 4 uM after 24 hrs by enzyme immunoassay; assay type: functional, BV-2
[3] = tested on: BV-2; test: Antiinflammatory activity in mouse BV2 cells assessed as inhibition of LPS/IFNgamma-induced COX2 expression at 0.5 to 4 uM after 24 hrs by Western blot; assay type: functional, cell-based
[4] = Antiinflammatory activity in mouse BV2 cells assessed as LPS/IFNgamma-induced COX2 expression at 4 uM after 24 hrs by Western blot; assay type: functional, BV-2
[5] = tested on: BV-2; test: Antiinflammatory activity in mouse BV2 cells assessed as inhibition of LPS/IFNgamma-induced mPGES1 expression at 0.5 to 4 uM after 24 hrs by Western blot; assay type: functional, cell-based
[6] = tested on: BV-2; test: Antiinflammatory activity in mouse BV2 cells assessed as inhibition of LPS/IFNgamma-induced IL6 production at 0.5 to 4 uM pre-incubated before LPS/IFNgamma challenge and measured 24 hrs post LPS/IFNgamma challenge by ELISA method; assay type: functional, cell-based
[7] = tested on: BV-2; test: Antiinflammatory activity in mouse BV2 cells assessed as inhibition of LPS/IFNgamma-induced TNFalpha production at 1 to 4 uM pre-incubated before LPS/IFNgamma challenge and measured 24 hrs post LPS/IFNgamma challenge by ELISA method; assay type: functional, cell-based
[8] = Toxicity against LPS/IFNgamma-induced mouse BV2 cells assessed as cell viability at 0.5 to 4 uM pre-incubated before LPS/IFNgamma challenge and measured 24 hrs post LPS/IFNgamma challenge by MTT assay; assay type: cell-based; conditions: bv-2, 24 h
[9] = target: T1, Nuclear factor NF-kappa-B complex (Homo sapiens) (UniProt Q00653+P19838+Q04206); test: Inhibition of NFkappaB (unknown origin) expressed in HEK293 cells assessed as reduction in TNFalpha-induced gene transcription at 0.5 to 4 uM pre-incubated for 30 mins prior to stimulation with TNFalpha for 6 hrs by luciferase reporter gene assay; assay type: cell-based
T1 sequence (P19838 whole entry, looked up): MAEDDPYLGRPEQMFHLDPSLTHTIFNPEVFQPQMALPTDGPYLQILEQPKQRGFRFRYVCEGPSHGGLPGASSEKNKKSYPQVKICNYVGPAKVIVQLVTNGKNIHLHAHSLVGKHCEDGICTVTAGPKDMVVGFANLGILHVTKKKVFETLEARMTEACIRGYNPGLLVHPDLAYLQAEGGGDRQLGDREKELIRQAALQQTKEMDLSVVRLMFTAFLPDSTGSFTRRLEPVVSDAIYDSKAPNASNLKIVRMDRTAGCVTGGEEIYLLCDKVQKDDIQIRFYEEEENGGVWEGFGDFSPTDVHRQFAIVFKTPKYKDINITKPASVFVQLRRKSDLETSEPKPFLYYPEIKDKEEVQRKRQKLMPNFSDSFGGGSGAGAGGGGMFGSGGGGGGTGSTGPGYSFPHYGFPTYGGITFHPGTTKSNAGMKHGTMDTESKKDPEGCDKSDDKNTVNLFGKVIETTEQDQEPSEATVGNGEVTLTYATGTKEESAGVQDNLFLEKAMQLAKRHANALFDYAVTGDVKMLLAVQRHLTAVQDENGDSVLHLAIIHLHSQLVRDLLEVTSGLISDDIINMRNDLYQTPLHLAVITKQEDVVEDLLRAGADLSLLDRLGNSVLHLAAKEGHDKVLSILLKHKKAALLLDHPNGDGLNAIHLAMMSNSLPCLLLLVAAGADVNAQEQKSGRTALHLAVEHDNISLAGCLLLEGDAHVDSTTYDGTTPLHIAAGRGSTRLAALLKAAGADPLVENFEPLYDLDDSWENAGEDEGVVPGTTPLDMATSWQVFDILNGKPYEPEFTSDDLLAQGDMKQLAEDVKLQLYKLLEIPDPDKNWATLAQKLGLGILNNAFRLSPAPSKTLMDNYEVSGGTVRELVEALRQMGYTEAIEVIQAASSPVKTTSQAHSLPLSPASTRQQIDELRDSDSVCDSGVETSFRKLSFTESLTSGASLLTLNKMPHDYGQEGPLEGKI
T1 sequence (Q00653 whole entry, looked up): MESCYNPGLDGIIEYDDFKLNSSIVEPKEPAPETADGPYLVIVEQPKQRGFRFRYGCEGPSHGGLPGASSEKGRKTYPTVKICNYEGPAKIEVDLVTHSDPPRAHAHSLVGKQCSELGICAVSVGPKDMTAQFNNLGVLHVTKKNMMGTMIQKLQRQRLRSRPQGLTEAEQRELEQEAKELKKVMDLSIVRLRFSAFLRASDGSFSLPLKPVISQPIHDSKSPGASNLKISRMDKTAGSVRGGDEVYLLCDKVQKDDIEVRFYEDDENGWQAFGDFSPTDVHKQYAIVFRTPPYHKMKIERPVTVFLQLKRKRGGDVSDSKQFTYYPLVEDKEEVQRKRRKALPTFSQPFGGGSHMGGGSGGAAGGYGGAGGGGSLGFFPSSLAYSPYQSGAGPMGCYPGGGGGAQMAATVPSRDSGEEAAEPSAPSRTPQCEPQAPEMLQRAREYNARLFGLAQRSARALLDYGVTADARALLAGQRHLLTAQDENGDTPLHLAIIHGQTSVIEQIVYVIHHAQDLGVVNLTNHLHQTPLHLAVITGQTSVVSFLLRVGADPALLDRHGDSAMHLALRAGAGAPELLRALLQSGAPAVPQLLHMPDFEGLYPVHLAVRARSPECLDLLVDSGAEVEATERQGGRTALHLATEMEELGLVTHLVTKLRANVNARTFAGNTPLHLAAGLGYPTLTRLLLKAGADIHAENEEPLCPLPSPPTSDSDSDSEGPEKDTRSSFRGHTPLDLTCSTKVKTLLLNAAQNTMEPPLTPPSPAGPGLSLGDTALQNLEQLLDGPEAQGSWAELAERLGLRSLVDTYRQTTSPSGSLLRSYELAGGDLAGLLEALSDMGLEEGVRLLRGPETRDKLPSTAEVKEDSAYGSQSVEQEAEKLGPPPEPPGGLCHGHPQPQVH
T1 sequence (Q04206 whole entry, looked up): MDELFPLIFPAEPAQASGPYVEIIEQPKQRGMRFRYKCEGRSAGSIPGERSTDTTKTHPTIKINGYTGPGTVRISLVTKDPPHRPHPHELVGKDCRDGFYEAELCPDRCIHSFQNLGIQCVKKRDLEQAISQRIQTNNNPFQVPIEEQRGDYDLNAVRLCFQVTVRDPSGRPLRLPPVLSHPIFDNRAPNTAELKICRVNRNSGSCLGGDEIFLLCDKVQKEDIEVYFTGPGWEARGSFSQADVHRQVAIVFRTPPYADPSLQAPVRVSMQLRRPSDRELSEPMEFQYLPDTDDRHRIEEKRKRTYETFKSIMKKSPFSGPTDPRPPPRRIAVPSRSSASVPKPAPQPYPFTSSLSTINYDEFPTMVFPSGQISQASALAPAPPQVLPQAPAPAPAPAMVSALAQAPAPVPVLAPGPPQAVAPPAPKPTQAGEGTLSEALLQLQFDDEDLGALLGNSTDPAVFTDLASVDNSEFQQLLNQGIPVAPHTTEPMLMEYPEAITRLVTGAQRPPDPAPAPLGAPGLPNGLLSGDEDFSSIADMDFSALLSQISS

[10] = target: T1, Nuclear factor NF-kappa-B complex (Homo sapiens); test: Inhibition of NFkappaB (unknown origin) expressed in HEK293 cells assessed as TNFalpha-induced gene transcription at 4 uM pre-incubated for 30 mins prior to stimulation with TNFalpha for 6 hrs by luciferase reporter gene assay; assay type: cell-based; set-up: scale not given: the % may be the effect or the level left
[11] = tested on: BV-2; test: Inhibition of IKK in mouse BV2 cells assessed as LPS/IFNgamma-induced IkappaB phosphorylation level at 0.5 uM pre-incubated for 30 mins before LPS/IFNgamma challenge for 1 hr by Western blot method; assay type: cell-based; set-up: scale not given: the % may be the effect or the level left
[12] = tested on: BV-2; test: Inhibition of IKK in mouse BV2 cells assessed as LPS/IFNgamma-induced IkappaB phosphorylation level at 1 uM pre-incubated for 30 mins before LPS/IFNgamma challenge for 1 hr by Western blot method; assay type: cell-based; set-up: scale not given: the % may be the effect or the level left
[13] = tested on: BV-2; test: Inhibition of IKK in mouse BV2 cells assessed as LPS/IFNgamma-induced IkappaB phosphorylation level at 2 uM pre-incubated for 30 mins before LPS/IFNgamma challenge for 1 hr by Western blot method; assay type: cell-based; set-up: scale not given: the % may be the effect or the level left
[14] = tested on: BV-2; test: Inhibition of IKK in mouse BV2 cells assessed as LPS/IFNgamma-induced IkappaB phosphorylation level at 4 uM pre-incubated for 30 mins before LPS/IFNgamma challenge for 1 hr by Western blot method; assay type: cell-based; set-up: scale not given: the % may be the effect or the level left
[15] = tested on: BV-2; test: Inhibition of IKK in mouse BV2 cells assessed as reduction in LPS/IFNgamma-induced IkappaB degradation at 0.5 to 4 uM pre-incubated for 30 mins before LPS/IFNgamma challenge for 1 hr by Western blot method; assay type: cell-based
[16] = tested on: BV-2; test: Inhibition of IKK in mouse BV2 cells assessed as reduction in LPS/IFNgamma-induced IkappaB phosphorylation level at 4 uM pre-incubated for 30 mins before LPS/IFNgamma challenge for 1 hr by ELISA method; assay type: cell-based
[17] = tested on: BV-2; test: Inhibition of IKK in mouse BV2 cells assessed as reduction in LPS/IFNgamma-induced IkappaB degradation at 0.5 to 4 uM pre-incubated for 30 mins before LPS/IFNgamma challenge for 1 hr by ELISA method; assay type: cell-based
[18] = target: T2, Inhibitor of nuclear factor kappa-B kinase subunit alpha (Mus musculus) (UniProt Q60680); test: Inhibition of LPS/IFNgamma-induced IKKalpha phosphorylation in mouse BV2 cells at 1 to 4 uM pre-incubated for 30 mins before LPS/IFNgamma challenge for 1 hr by Western blot method; assay type: cell-based; conditions: BV-2
T2 sequence (whole entry): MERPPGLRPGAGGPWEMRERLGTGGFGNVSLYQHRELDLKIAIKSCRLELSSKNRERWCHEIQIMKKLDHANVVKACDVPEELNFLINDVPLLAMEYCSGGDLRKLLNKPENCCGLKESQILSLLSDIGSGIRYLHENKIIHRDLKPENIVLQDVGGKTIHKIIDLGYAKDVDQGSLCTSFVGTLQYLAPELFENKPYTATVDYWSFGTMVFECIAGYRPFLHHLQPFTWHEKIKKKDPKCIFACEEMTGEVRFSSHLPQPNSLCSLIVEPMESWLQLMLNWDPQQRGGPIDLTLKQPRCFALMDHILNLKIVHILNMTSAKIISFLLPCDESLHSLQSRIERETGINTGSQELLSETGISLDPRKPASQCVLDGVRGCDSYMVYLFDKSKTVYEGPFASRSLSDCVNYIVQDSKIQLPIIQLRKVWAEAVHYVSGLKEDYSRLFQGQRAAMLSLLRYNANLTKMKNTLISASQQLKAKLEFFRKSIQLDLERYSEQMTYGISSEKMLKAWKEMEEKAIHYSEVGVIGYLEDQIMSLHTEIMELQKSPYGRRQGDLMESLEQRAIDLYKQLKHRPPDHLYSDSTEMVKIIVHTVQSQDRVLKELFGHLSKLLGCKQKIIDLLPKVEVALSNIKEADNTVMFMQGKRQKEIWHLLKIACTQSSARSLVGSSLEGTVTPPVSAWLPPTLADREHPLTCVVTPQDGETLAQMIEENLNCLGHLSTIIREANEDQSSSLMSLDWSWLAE

[19] = target: T3, Inhibitor of nuclear factor kappa-B kinase subunit beta (Mus musculus) (UniProt O88351); test: Inhibition of LPS/IFNgamma-induced IKKbeta phosphorylation in mouse BV2 cells at 1 to 4 uM pre-incubated for 30 mins before LPS/IFNgamma challenge for 1 hr by Western blot method; assay type: cell-based; conditions: BV-2
T3 sequence (whole entry): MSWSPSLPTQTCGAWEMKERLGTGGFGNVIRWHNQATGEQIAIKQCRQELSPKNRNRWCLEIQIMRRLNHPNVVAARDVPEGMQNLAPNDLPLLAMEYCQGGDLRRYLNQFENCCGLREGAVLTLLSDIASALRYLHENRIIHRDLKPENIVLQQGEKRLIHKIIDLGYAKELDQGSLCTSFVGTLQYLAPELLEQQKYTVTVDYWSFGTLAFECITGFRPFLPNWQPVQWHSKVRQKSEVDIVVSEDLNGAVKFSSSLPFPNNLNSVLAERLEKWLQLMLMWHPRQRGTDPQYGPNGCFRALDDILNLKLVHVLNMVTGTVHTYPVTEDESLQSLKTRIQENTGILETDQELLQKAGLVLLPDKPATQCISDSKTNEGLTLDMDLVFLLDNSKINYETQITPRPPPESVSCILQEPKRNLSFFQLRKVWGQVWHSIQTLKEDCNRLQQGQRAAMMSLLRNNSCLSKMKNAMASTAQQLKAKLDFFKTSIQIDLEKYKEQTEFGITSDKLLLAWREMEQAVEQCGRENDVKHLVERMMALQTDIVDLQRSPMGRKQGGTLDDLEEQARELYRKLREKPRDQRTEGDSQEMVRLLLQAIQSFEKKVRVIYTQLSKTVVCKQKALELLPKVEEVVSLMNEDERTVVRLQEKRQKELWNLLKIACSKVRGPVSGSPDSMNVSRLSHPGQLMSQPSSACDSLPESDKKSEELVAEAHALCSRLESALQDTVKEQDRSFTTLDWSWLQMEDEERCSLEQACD

[20] = target: T4, MAP kinase p38 (Mus musculus) (UniProt P47811+O08911+Q9WUI1+Q9Z1B7); test: Inhibition of LPS/IFNgamma-induced p38 phosphorylation in mouse BV2 cells at 1 to 4 uM pre-incubated for 30 mins before LPS/IFNgamma challenge for 1 hr by Western blot method; assay type: cell-based; conditions: BV-2
[21] = target: T4, MAP kinase p38 (Mus musculus); test: Inhibition of p38 in mouse BV2 cells assessed as reduction in LPS/IFNgamma-induced MAPKAPK2 phosphorylation at 1 to 4 uM pre-incubated for 30 mins before LPS/IFNgamma challenge for 1 hr by Western blot method; assay type: cell-based; conditions: BV-2

C[C@H]1[C@H](OC(=O)CCC(=O)O)O[C@@H]2O[C@@]3(C)CC[C@H]4[C@H](C)CC[C@@H]1[C@@]24OO3 [ARTESUNATE]
inhibition [1]: Active | Activity [2]: 38.8% | inhibition [3]: Active | Activity [4]: 55% | inhibition [5]: Active | inhibition [6]: Dose-dependent effect | inhibition [7]: Active | Activity [8]: Non-toxic | inhibition [9]: Active | Activity [10]: 35.4% | Activity [11]: 68.8% | Activity [12]: 56.4% | Activity [13]: 44.3% | Activity [14]: 44.4% | inhibition [15]: Active | inhibition [16]: Active | inhibition [17]: Active | inhibition [18]: Active | inhibition [19]: Active | inhibition [20]: Active | inhibition [21]: Active
